# Assay: Pulse (vital signs)
# Description: The Investigational Medicinal Product (IMP) R(−)-ketamine hydrochloride in sterile water for intravenous injection was investigated as an […] treatment of TRD. The International Union of Pure and Applied Chemistry (IUPAC) name is of the IMP is (2R)-2-(2-chlorophenyl)-2-(methylamino)cyclohexan-1-one. Subjects received the solution at either 30 mg or 60 mg dose, or a placebo. The IMP or placebo was administered on Day 1 as a single IV infusion via an electronic infusion pump over 40 minutes. The duration of study participation for each subject was up to 29 days including a screening period, a 3-day in-clinic visit, and 2 follow-up visits. 101 subjects were enrolled in approximately 20 study centers in the EU and the US.
# Tympanic or temporal temperature, heart rate, blood pressure (SBP/DBP), respiratory rate, and SpO2 were assessed. Blood pressure and pulse measurements will be assessed with a completely automated device while the subject is supine or semi-supine. Manual techniques will be used only if an automated device is not available. Blood pressure and pulse measurements should be preceded by at least 5 minutes of rest for the subject in a quiet setting without distractions (e.g., television, cell phones). An abnormal blood pressure value at screening may be repeated once after 5 minutes of relaxation to determine the subject's eligibility. Blood pressure was recorded using the same arm and position (supine or semi-supine) throughout the study, where possible. Vital signs (to be taken before blood collection for laboratory tests) consisted of 1 pulse and 3 blood pressure measurements (3 consecutive blood pressure readings will be recorded at intervals of at least 1 minute). The average of the 3 blood pressure readings was recorded in the CRF. A pulse oximeter was used to measure peripheral capillary oxygen saturation (SpO2) continuously from pre-dose until 4-hours post-dose. A pulse oximeter was clipped onto the finger or foot of the subject, and light will be sent through the finger or foot and measured on the other side.
# In these tables, baseline value is defined as the last non-missing value prior to study drug administration.
structure (smiles),measurement,setting,value
"CN[C@@]1(c2ccccc2Cl)CCCCC1=O.Cl [R(−)-ketamine, (2R)-2-(2-chlorophenyl)-2-(methylamino)cyclohexan-1-one]",Pulse: Mean,"30 mg, Day 1, 15 minutes",69.4 beats/minute
same,Pulse: Median,"30 mg, Day 1, 15 minutes",70.0 beats/minute
same,Pulse: Mean,"30 mg, Day 1, 40 minutes",69.9 beats/minute
same,Pulse: Median,"30 mg, Day 1, 40 minutes",70.0 beats/minute
same,Pulse: Mean,"30 mg, Day 1, 60 minutes",67.2 beats/minute
same,Pulse: Median,"30 mg, Day 1, 60 minutes",68.5 beats/minute
same,Pulse: Mean,"30 mg, Day 1, 2 hours",70.7 beats/minute
same,Pulse: Median,"30 mg, Day 1, 2 hours",70.0 beats/minute
same,Pulse: Mean,"30 mg, Day 1, 4 hours",72.1 beats/minute
same,Pulse: Median,"30 mg, Day 1, 4 hours",72.0 beats/minute
same,Pulse: Mean,"30 mg, Day 1, 6 hours",70.7 beats/minute
same,Pulse: Median,"30 mg, Day 1, 6 hours",72.0 beats/minute
same,Pulse: Mean,"30 mg, Day 2 - Discharge",73.5 beats/minute
same,Pulse: Median,"30 mg, Day 2 - Discharge",75.0 beats/minute
same,Pulse: Mean,"30 mg, Day 8",74.1 beats/minute
same,Pulse: Median,"30 mg, Day 8",74.0 beats/minute
same,Pulse: Mean,"30 mg, Day 15",74.4 beats/minute
same,Pulse: Median,"30 mg, Day 15",75.0 beats/minute
same,"Pulse: Change from Baseline, Mean","30 mg, to Day 1, 15 minutes",−0.4 beats/minute
same,"Pulse: Change from Baseline, Median","30 mg, to Day 1, 15 minutes",0.0 beats/minute
same,"Pulse: Change from Baseline, Mean","30 mg, to Day 1, 40 minutes",−0.6 beats/minute
same,"Pulse: Change from Baseline, Median","30 mg, to Day 1, 40 minutes",−1.0 beats/minute
same,"Pulse: Change from Baseline, Mean","30 mg, to Day 1, 60 minutes",−2.5 beats/minute
same,"Pulse: Change from Baseline, Median","30 mg, to Day 1, 60 minutes",−3.5 beats/minute
same,"Pulse: Change from Baseline, Mean","30 mg, to Day 1, 2 hours",0.2 beats/minute
same,"Pulse: Change from Baseline, Median","30 mg, to Day 1, 2 hours",−2.0 beats/minute
same,"Pulse: Change from Baseline, Mean","30 mg, to Day 1, 4 hours",1.6 beats/minute
same,"Pulse: Change from Baseline, Median","30 mg, to Day 1, 4 hours",2.0 beats/minute
same,"Pulse: Change from Baseline, Mean","30 mg, to Day 1, 6 hours",0.2 beats/minute
same,"Pulse: Change from Baseline, Median","30 mg, to Day 1, 6 hours",1.0 beats/minute
same,"Pulse: Change from Baseline, Mean","30 mg, to Day 2 - Discharge",3.1 beats/minute
same,"Pulse: Change from Baseline, Median","30 mg, to Day 2 - Discharge",2.0 beats/minute
same,"Pulse: Change from Baseline, Mean","30 mg, to Day 8",2.1 beats/minute
same,"Pulse: Change from Baseline, Median","30 mg, to Day 8",1.0 beats/minute
same,"Pulse: Change from Baseline, Mean","30 mg, to Day 15",3.3 beats/minute
same,"Pulse: Change from Baseline, Median","30 mg, to Day 15",2.0 beats/minute
same,Pulse: Mean,"60 mg, Day 1, 15 minutes",67.3 beats/minute
same,Pulse: Median,"60 mg, Day 1, 15 minutes",66.5 beats/minute
same,Pulse: Mean,"60 mg, Day 1, 40 minutes",68.0 beats/minute
same,Pulse: Median,"60 mg, Day 1, 40 minutes",68.0 beats/minute
same,Pulse: Mean,"60 mg, Day 1, 60 minutes",64.9 beats/minute
same,Pulse: Median,"60 mg, Day 1, 60 minutes",65.0 beats/minute
same,Pulse: Mean,"60 mg, Day 1, 2 hours",68.2 beats/minute
same,Pulse: Median,"60 mg, Day 1, 2 hours",70.0 beats/minute
same,Pulse: Mean,"60 mg, Day 1, 4 hours",70.7 beats/minute
same,Pulse: Median,"60 mg, Day 1, 4 hours",72.0 beats/minute
same,Pulse: Mean,"60 mg, Day 1, 6 hours",72.6 beats/minute
same,Pulse: Median,"60 mg, Day 1, 6 hours",71.0 beats/minute
same,Pulse: Mean,"60 mg, Day 2 - Discharge",72.2 beats/minute
same,Pulse: Median,"60 mg, Day 2 - Discharge",70.0 beats/minute
same,Pulse: Mean,"60 mg, Day 8",73.3 beats/minute
same,Pulse: Median,"60 mg, Day 8",70.0 beats/minute
same,Pulse: Mean,"60 mg, Day 15",71.0 beats/minute
same,Pulse: Median,"60 mg, Day 15",69.0 beats/minute
same,"Pulse: Change from Baseline, Mean","60 mg, to Day 1, 15 minutes",0.0 beats/minute
same,"Pulse: Change from Baseline, Median","60 mg, to Day 1, 15 minutes",0.5 beats/minute
same,"Pulse: Change from Baseline, Mean","60 mg, to Day 1, 40 minutes",−4.7 beats/minute
same,"Pulse: Change from Baseline, Median","60 mg, to Day 1, 40 minutes",−5.0 beats/minute
same,"Pulse: Change from Baseline, Mean","60 mg, to Day 1, 60 minutes",−2.3 beats/minute
same,"Pulse: Change from Baseline, Median","60 mg, to Day 1, 60 minutes",−1.0 beats/minute
same,"Pulse: Change from Baseline, Mean","60 mg, to Day 1, 2 hours",−4.5 beats/minute
same,"Pulse: Change from Baseline, Median","60 mg, to Day 1, 2 hours",−5.0 beats/minute
same,"Pulse: Change from Baseline, Mean","60 mg, to Day 1, 4 hours",−2.0 beats/minute
same,"Pulse: Change from Baseline, Median","60 mg, to Day 1, 4 hours",−1.0 beats/minute
same,"Pulse: Change from Baseline, Mean","60 mg, to Day 1, 6 hours",−0.3 beats/minute
same,"Pulse: Change from Baseline, Median","60 mg, to Day 1, 6 hours",0.5 beats/minute
same,"Pulse: Change from Baseline, Mean","60 mg, to Day 2 - Discharge",−0.6 beats/minute
same,"Pulse: Change from Baseline, Median","60 mg, to Day 2 - Discharge",−1.0 beats/minute
same,"Pulse: Change from Baseline, Mean","60 mg, to Day 8",0.6 beats/minute
same,"Pulse: Change from Baseline, Median","60 mg, to Day 8",0.0 beats/minute
same,"Pulse: Change from Baseline, Mean","60 mg, to Day 15",−1.7 beats/minute
same,"Pulse: Change from Baseline, Median","60 mg, to Day 15",0.0 beats/minute
